Experimental data as given in the supplement of paper PMC10307832.

What was measured:
Assay in all cases: relative viability (nuclei count vs DMSO), 5 days (fraction); higher = more cells survive
EPLC-272H = test system: EPLC-272H
How it was run: (§1)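 Cells from lung cancer lines were seeded into 1536-well plates and, one day later, dosed by pin tool. Treatments were either a single drug or a fixed dose of an anchor drug with five library-drug doses (not always all listed) in √10 steps. After 5 days, nuclei were stained in a one-step fixation (final 0.05% Triton X-100, 1% formaldehyde, 1 ug/ml Hoechst) and counted on 4× images, and relative viability is the treated-to-vehicle nuclei ratio, as the median of duplicate plates.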

NCI-H1975 = test system: NCI-H1975
How it was run: as §1

LXF-289 = test system: LXF-289
How it was run: as §1

UMC-11 = test system: UMC-11
How it was run: as §1

HCC-78 = test system: HCC-78
How it was run: as §1

NCI-H1915 = test system: NCI-H1915
How it was run: as §1

SK-LU-1 = test system: SK-LU-1
How it was run: as §1

LC-2-ad = test system: LC-2-ad
How it was run: as §1

NCI-H358 = test system: NCI-H358
How it was run: as §1

NCI-H1755 = test system: NCI-H1755
How it was run: as §1

HOP-62 = test system: HOP-62
How it was run: as §1

NCI-H2170 = test system: NCI-H2170
How it was run: as §1

NCI-H460 = test system: NCI-H460
How it was run: as §1

A-427 = test system: A-427
How it was run: as §1

LU99A = test system: LU99A
How it was run: as §1

NCI-H2085 = test system: NCI-H2085
How it was run: as §1

LCLC-97TM1 = test system: LCLC-97TM1
How it was run: as §1

COR-L 105 = test system: COR-L 105
How it was run: as §1

NCI-H1793 = test system: NCI-H1793
How it was run: as §1

HCC-366 = test system: HCC-366
How it was run: as §1

NCI-H1944 = test system: NCI-H1944
How it was run: as §1

SW 900 = test system: SW 900
How it was run: as §1

NC(=O)Nc1cc(-c2cccc(F)c2)sc1C(=O)N[C@H]1CCCNC1 [AZD7762] + Cc1cc(Nc2cc(N3CCN(C)CC3)nc(Sc3ccc(NC(=O)C4CC4)cc3)n2)n[nH]1 [Tozasertib] (partner 0.1 µM)
relative viability (EPLC-272H; first compound 0.01 µM): 0.274
relative viability (EPLC-272H; first compound 0.03162 µM): 0.242
relative viability (EPLC-272H; first compound 0.1 µM): 0.248
relative viability (EPLC-272H; first compound 0.3162 µM): 0.28
relative viability (EPLC-272H; first compound 1 µM): 0.0908
relative viability (NCI-H1975; first compound 0.01 µM): 0.762
relative viability (NCI-H1975; first compound 0.03162 µM): 0.721
relative viability (NCI-H1975; first compound 0.1 µM): 0.589
relative viability (NCI-H1975; first compound 0.3162 µM): 0.469
relative viability (NCI-H1975; first compound 1 µM): 0.367
relative viability (LXF-289; first compound 0.01 µM): 0.215
relative viability (LXF-289; first compound 0.03162 µM): 0.203
relative viability (LXF-289; first compound 0.1 µM): 0.196
relative viability (LXF-289; first compound 0.3162 µM): 0.174
relative viability (LXF-289; first compound 1 µM): 0.188
relative viability (UMC-11; first compound 0.01 µM): 0.191
relative viability (UMC-11; first compound 0.03162 µM): 0.216
relative viability (UMC-11; first compound 0.1 µM): 0.202
relative viability (UMC-11; first compound 0.3162 µM): 0.194
relative viability (UMC-11; first compound 1 µM): 0.191
relative viability (HCC-78; first compound 0.01 µM): 0.539
relative viability (HCC-78; first compound 0.03162 µM): 0.437
relative viability (HCC-78; first compound 0.1 µM): 0.515
relative viability (HCC-78; first compound 0.3162 µM): 0.44
relative viability (HCC-78; first compound 1 µM): 0.404
relative viability (NCI-H1915; first compound 0.01 µM): 0.471
relative viability (NCI-H1915; first compound 0.03162 µM): 0.497
relative viability (NCI-H1915; first compound 0.1 µM): 0.483
relative viability (NCI-H1915; first compound 0.3162 µM): 0.415
relative viability (NCI-H1915; first compound 1 µM): 0.368
relative viability (SK-LU-1; first compound 0.01 µM): 0.374
relative viability (SK-LU-1; first compound 0.03162 µM): 0.246
relative viability (SK-LU-1; first compound 0.1 µM): 0.17
relative viability (SK-LU-1; first compound 0.3162 µM): 0.128
relative viability (SK-LU-1; first compound 1 µM): 0.142
relative viability (LC-2-ad; first compound 0.01 µM): 0.623
relative viability (LC-2-ad; first compound 0.03162 µM): 0.55
relative viability (LC-2-ad; first compound 0.1 µM): 0.449
relative viability (LC-2-ad; first compound 0.3162 µM): 0.463
relative viability (LC-2-ad; first compound 1 µM): 0.268
relative viability (NCI-H358; first compound 0.01 µM): 0.0979
relative viability (NCI-H358; first compound 0.03162 µM): 0.088
relative viability (NCI-H358; first compound 0.1 µM): 0.109
relative viability (NCI-H358; first compound 0.3162 µM): 0.0755
relative viability (NCI-H358; first compound 1 µM): 0.0734
relative viability (NCI-H1755; first compound 0.01 µM): 0.767
relative viability (NCI-H1755; first compound 0.03162 µM): 0.572
relative viability (NCI-H1755; first compound 0.1 µM): 0.687
relative viability (NCI-H1755; first compound 0.3162 µM): 0.539
relative viability (NCI-H1755; first compound 1 µM): 0.421
relative viability (HOP-62; first compound 0.01 µM): 0.439
relative viability (HOP-62; first compound 0.03162 µM): 0.376
relative viability (HOP-62; first compound 0.1 µM): 0.378
relative viability (HOP-62; first compound 0.3162 µM): 0.339
relative viability (HOP-62; first compound 1 µM): 0.219
relative viability (NCI-H2170; first compound 0.01 µM): 0.781
relative viability (NCI-H2170; first compound 0.03162 µM): 0.726
relative viability (NCI-H2170; first compound 0.1 µM): 0.697
relative viability (NCI-H2170; first compound 0.3162 µM): 0.788
relative viability (NCI-H2170; first compound 1 µM): 0.726
relative viability (NCI-H460; first compound 0.01 µM): 0.506
relative viability (NCI-H460; first compound 0.03162 µM): 0.394
relative viability (NCI-H460; first compound 0.1 µM): 0.444
relative viability (NCI-H460; first compound 0.3162 µM): 0.357
relative viability (NCI-H460; first compound 1 µM): 0.031
relative viability (A-427; first compound 0.01 µM): 0.215
relative viability (A-427; first compound 0.03162 µM): 0.218
relative viability (A-427; first compound 0.1 µM): 0.207
relative viability (A-427; first compound 0.3162 µM): 0.179
relative viability (A-427; first compound 1 µM): 0.175
relative viability (LU99A; first compound 0.01 µM): 0.318
relative viability (LU99A; first compound 0.03162 µM): 0.279
relative viability (LU99A; first compound 0.1 µM): 0.341
relative viability (LU99A; first compound 0.3162 µM): 0.281
relative viability (LU99A; first compound 1 µM): 0.218
relative viability (NCI-H2085; first compound 0.01 µM): 0.875
relative viability (NCI-H2085; first compound 0.03162 µM): 0.769
relative viability (NCI-H2085; first compound 0.1 µM): 0.807
relative viability (NCI-H2085; first compound 0.3162 µM): 0.729
relative viability (NCI-H2085; first compound 1 µM): 0.713
relative viability (LCLC-97TM1; first compound 0.01 µM): 0.325
relative viability (LCLC-97TM1; first compound 0.03162 µM): 0.263
relative viability (LCLC-97TM1; first compound 0.1 µM): 0.225
relative viability (LCLC-97TM1; first compound 0.3162 µM): 0.398
relative viability (LCLC-97TM1; first compound 1 µM): 0.292
relative viability (COR-L 105; first compound 0.01 µM): 0.348
relative viability (COR-L 105; first compound 0.03162 µM): 0.311
relative viability (COR-L 105; first compound 0.1 µM): 0.328
relative viability (COR-L 105; first compound 0.3162 µM): 0.3
relative viability (COR-L 105; first compound 1 µM): 0.258
relative viability (NCI-H1793; first compound 0.01 µM): 0.395
relative viability (NCI-H1793; first compound 0.03162 µM): 0.403
relative viability (NCI-H1793; first compound 0.1 µM): 0.314
relative viability (NCI-H1793; first compound 0.3162 µM): 0.374
relative viability (NCI-H1793; first compound 1 µM): 0.198
relative viability (HCC-366; first compound 0.01 µM): 0.144
relative viability (HCC-366; first compound 0.03162 µM): 0.164
relative viability (HCC-366; first compound 0.1 µM): 0.125
relative viability (HCC-366; first compound 0.3162 µM): 0.119
relative viability (HCC-366; first compound 1 µM): 0.0666
relative viability (NCI-H1944; first compound 0.01 µM): 0.253
relative viability (NCI-H1944; first compound 0.03162 µM): 0.257
relative viability (NCI-H1944; first compound 0.1 µM): 0.285
relative viability (NCI-H1944; first compound 0.3162 µM): 0.301
relative viability (NCI-H1944; first compound 1 µM): 0.248
relative viability (SW 900; first compound 0.01 µM): 0.713
relative viability (SW 900; first compound 0.03162 µM): 0.536
relative viability (SW 900; first compound 0.1 µM): 0.743
relative viability (SW 900; first compound 0.3162 µM): 0.663
relative viability (SW 900; first compound 1 µM): 0.403
